Reference: patent publication US20060079453A1, “Hla binding peptides and their uses” (priority 2002, published 2006)
Read-outs that look alike come from different tables or passages of the source. No end group written: not given here.

Experiments:
Assay in all cases: biochemical
Format in all cases: binding
HLA-A*0206 = HLA-A*0206 (Homo sapiens, UniProt P04439, D140Y/D185E/D98H/E176V/E277Q/F33Y/G131W/G231S/I119V/I121R/I166T/I218V/L300P/L318F/N151K/N90K/P208A/P217A/Q86G/Q94H/R138H/R169H/T345S)
HLA-A*0202 = HLA-A*0202 (Homo sapiens, UniProt P04439, D140Y/D185E/D98H/E176V/E277Q/G131W/G231S/I119L/I121R/I166T/I218V/L180W/L300P/L318F/N151K/N90K/P208A/P217A/Q67R/Q86G/Q94H/R138H/R169H/T345S)
HLA-A*0203 = HLA-A*0203 (Homo sapiens, UniProt P04439, A173T/D140Y/D185E/D98H/E277Q/G131W/G231S/I119V/I121R/I166T/I218V/L180W/L300P/L318F/N151K/N90K/P208A/P217A/Q86G/Q94H/R138H/R169H/T345S)
HLA-A*0201 = HLA-A*0201 (Homo sapiens, UniProt P04439, D140Y/D185E/D98H/E176V/E277Q/G131W/G231S/I119V/I121R/I166T/I218V/L300P/L318F/N151K/N90K/P208A/P217A/Q86G/Q94H/R138H/R169H/T345S)
HLA-A*6802 = HLA-A*6802 (Homo sapiens, UniProt P04439, A269V/D140Y/D185E/E176V/E277Q/E87N/F33Y/G231S/I121R/I166T/I218V/L180W/L300P/L318F/N151K/P208A/P217A/Q86R/R138H/R169H/S129P/T345S/V36M)
HLA-A*2301 = HLA-A*2301 (Homo sapiens, UniProt P04439, D101N/D140Y/D185E/E176V/E190D/F33S/G103R/G107R/H175R/I119L/I121M/I306V/K168Q/K335N/L105A/L300P/N151K/N90K/P307H/Q86E/Q94H/R106L/R138H/R89G/T104I/T345S/V100E/W191G/Y123F)
[1] = A*0206 binding affinity (expressed as an IC50)
[2] = A*0202 binding affinity (expressed as an IC50)
[3] = A*0203 binding affinity (expressed as an IC50)
[4] = A*0201 binding affinity (expressed as an IC50)
[5] = A*6802 binding affinity (expressed as an IC50)

Sequence | IC50 (HLA-A*0206; [1]) [nM] | IC50 (HLA-A*0202; [2]) [nM] | IC50 (HLA-A*0203; [3]) [nM] | IC50 (HLA-A*0201; [4]) [nM] | IC50 (HLA-A*6802; [5]) [nM] | IC50 (HLA-A*0206) [nM] | IC50 (HLA-A*0202) [nM] | IC50 (HLA-A*0203) [nM] | IC50 (HLA-A*0201) [nM] | IC50 (HLA-A*6802) [nM] | IC50 (HLA-A*2301) [nM] | IC50 (HLA-A*2301; read-out: A*2301 binding affinity (IC50)) [nM]
MTSNPPIPV | 250 | 16 | 0.39 | 53 | 3.8 | – | – | – | – | – | – | –
MTSNPPVPV | 81 | 29 | 0.8 | 22 | 1.1 | – | – | – | – | – | – | –
PVPLQLPPV | – | – | – | – | – | 81 | > 7340 | 12600 | 10000 | > 15600 | – | –
QLFEDKYAL [QLFEDKYAL] | 2010 | 1.8 | 380 | 646 | 2980 | – | – | – | – | – | – | –
QLVGPGPGMEV | 919 | 17 | 19 | 865 | 223 | – | – | – | – | – | – | –
RTLHDLCQA | 96 | 34 | 678 | 8120 | 61600 | – | – | – | – | – | – | –
RYQDPQNYEL | – | – | – | – | – | – | – | – | – | – | 124 | –
SLLGPGPGAV | 642 | 17 | 2.6 | 95 | 795 | – | – | – | – | – | – | –
SLLNGPGPGV | 63 | 3.8 | 14 | 65 | 45 | – | – | – | – | – | – | –
TLGPGPGHL | 12100 | 35 | 66 | 15000 | 27900 | – | – | – | – | – | – | –
TYCCKCDSTL | – | – | – | – | – | – | – | – | – | – | – | 30
VLAEAMATA | 8.6 | 1.4 | 0.73 | 6.7 | 33 | – | – | – | – | – | – | –
VLAEAMSKV | 93 | 1.8 | 1.4 | 230 | 329 | – | – | – | – | – | – | –
VLAEAMSQT | – | – | – | – | – | 236 | 2.2 | 0.65 | 290 | 447 | – | –
VLAEAMSRA | – | – | – | – | – | 20 | 0.88 | 1 | 127 | 229 | – | –
VLAGPGPGVTL | 7200 | 2.4 | 94 | 1120 | 2640 | – | – | – | – | – | – | –
VLAKEGPGPGL | 59000 | 6.9 | 37 | 1890 | 51000 | – | – | – | – | – | – | –
VLFLQMMNV | 9.5 | 1.8 | 2.7 | 31 | 323 | – | – | – | – | – | – | –
VLRLFVCFLI | 68200 | 2110 | 299 | 2740 | 45600 | – | – | – | – | – | – | –
VLVHPQWVV | 3220 | 65 | 1990 | 464 | 14600 | – | – | – | – | – | – | –
VVQAGFFLV | 81 | 79 | 2500 | 440 | 617 | – | – | – | – | – | – | –
WLNYTPGPGT | – | – | – | – | – | > 31600 | 124 | 231 | 547 | 11800 | – | –
WLSGPGPGV | 885 | 2.5 | 12 | 220 | 24 | – | – | – | – | – | – | –
YLGPGPGAGI | 548 | 1 | 4.2 | 161 | 315 | – | – | – | – | – | – | –
YLLGPGPGGI | 89 | 12 | 3.3 | 180 | 2060 | – | – | – | – | – | – | –
YLLTGPGPGI | 60 | 15 | 59 | 42 | 5680 | – | – | – | – | – | – | –
YLLTLWKAGI | – | – | – | – | – | 40 | 19 | 20 | 20 | 1390 | – | –
YTPGPGIRYPV | 1110 | 1990 | 11100 | 7760 | 9.2 | – | – | – | – | – | – | –
YVDDVVLGV | 16 | 14 | 70 | 18 | 354 | – | – | – | – | – | – | –
